According to patent US20240294595A1, “GLYCOPEPTIDES AND USES THEREOF” (Arizona Board of Regents on Behalf of the University of …, priority 2013, published 2024):
“Also recorded” adds a separate entry of the source. Where no end group is shown, it is not given here.

Experiments:
[1] = system: 6-OHDA hemi-parkinsonian rat model; test: mild (25%) 6-OHDA hemi-parkinsonian rat model (study 1); type: in vivo
Description: The classical mild progressive 6-OHDA hemi-parkinsonian rat model was used to assess the neuroprotective potential of 2LS98Lac (FIGS. 9A,B). Briefly, the rats were given unilateral lesions by treatment with 6-OHDA. Then, the rats were challenged with a dopaminergic receptor agonist (amphetamine in our case) and assessed for their turning behavior (Kelly et al., 1975; Torres and Dunnet, 2007; DaCunha et al., 2008) The observed rotational behavior is likely due to the denervation of dopaminergic neurons and subsequent hypersensitivity of the dopaminergic receptors in the lesioned area of the brain. In the first experiment, mild lesions (25%) were induced (FIG. 9A) to simulate the early stages of PD, and amphetamine was used to induce […] rotations. Rats were treated with either vehicle or 2LS98Lac (15 mg/kg, i.p.) 6 h prior to lesioning and 24 h post-lesion. […] Following behavioral analysis, the number of tyrosine hydroxylase (TH)-positive neurons in the SNpc of both vehicle-treated and 2LS98Lac-treated animals was determined using immunohistochemical staining and unbiased stereology. […] Both behavioral and histological data obtained from these experiments indicate that 2LS98Lac successfully elicited neuroprotection.

[2] = system: 6-OHDA hemi-parkinsonian rat model; test: moderate (40%) 6-OHDA hemi-parkinsonian rat model (study 2); type: in vivo
Description: In a follow-up study, the neuroprotective potential of 2LS98Lac was also probed in rats with more severe (40%) 6-OHDA-induced lesions and three treatment-injections with 2LS98Lac (FIG. 9B).
Specifically, 6-OHDA did lead to reduction of % area IBA-1/cell (F3-24=4.463, p=0.0140; FIG. 9K), process length/cell (F3-24=5.925, p=0.0057; FIG. 9L), branches/cell (F3-24=5.845, p=0.0042; FIG. 9M), and endpoints/cell (F3-24=2.943, p=0.0286; FIG. 9N) on the lesioned side. Treatment with 2LS98Lac did lead to an increase of the parameters on the lesioned side back to levels on the intact side. […] Example images for the nigral IHC for TH and for IBA-1, as well as the semi-quantitative western analyses of striatal TH and beta-actin are presented in FIGS. 10A-D.

[3] = rat, serum
[4] = target: T1, PAC1 (Homo sapiens, UniProt P41586); conditions: previously reported; cited from earlier work
T1 sequence (P41586 21-468): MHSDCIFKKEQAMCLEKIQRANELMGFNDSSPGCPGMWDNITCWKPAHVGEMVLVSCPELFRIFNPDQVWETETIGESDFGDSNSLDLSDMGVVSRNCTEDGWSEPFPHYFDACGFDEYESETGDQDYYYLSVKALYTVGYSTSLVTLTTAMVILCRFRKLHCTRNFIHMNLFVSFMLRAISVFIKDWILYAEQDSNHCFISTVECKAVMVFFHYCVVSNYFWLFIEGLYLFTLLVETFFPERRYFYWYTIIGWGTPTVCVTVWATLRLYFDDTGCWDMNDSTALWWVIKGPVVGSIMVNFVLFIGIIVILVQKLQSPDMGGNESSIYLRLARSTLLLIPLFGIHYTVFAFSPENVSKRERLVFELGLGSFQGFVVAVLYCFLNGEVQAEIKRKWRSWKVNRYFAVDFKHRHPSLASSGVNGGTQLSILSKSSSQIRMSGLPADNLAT

[5] = target: T1, PAC1; test: PAC1-CHO calcium flux, FLIPR antagonist mode versus PACAP1-27; type: cell-based; set-up: host or cells: CHO (clonal line PAC1-CHO)
Method: The construct was electroporated into Chinese Hamster Ovary (CHO) cells, and selected for with 500 μg/mL of G418. The resulting population was screened for high expressing clones, and one such clone selected for further analysis. […] This cell line was used for all molecular pharmacology experiments. […] All molecular pharmacology experiments were carried out using a FLIPR Tetra from Molecular Devices (Sunnyvale, CA), set to image calcium flux using the manufacturer's recommended settings and protocols. […] The cells were recovered overnight in growth medium (as above). The next day, the growth medium was replaced with Calcium 6 dye (Molecular Devices) using the manufacturer recommended buffer with 2.5 mM probenecid. […] The resulting calcium flux was recorded, and the maximum-minimum response over the entire observation time calculated and reported as the mean±SEM (4 wells per point). For antagonist mode experiments, a concentration curve (variable concentration mode) or fixed amount (fixed concentration mode) of antagonist was added to the cells, and allowed to equilibrate for 2 minutes. […] The resulting data was analyzed using a Gaddum/Schild EC50 shift model, (Schild, 1957, Gaddum, 1957) designed to analyze competitive antagonism. (Lazareno and Birdsall, 1993) The data output was the pA2 (nM) and the Schild Slope, a measure of how closely the experimental data fits the operational model of competitive antagonism (Prism). For all analyses, each independent experiment performed in quadruplicate is considered to be a sample size of 1. The pharmacology values are calculated separately from each experiment, then combined and reported as the mean±SEM for the entire set of experiments.

[6] = system: PC12 cells; test: PC12 cell morphology / neurite outgrowth; type: cell-based; conditions: 100 nM
Method: PC12 cells are non-adherent cells, and in spite of using the poly-D-Lysine coated plates, the majority of the cells remained suspended. During the media exchange many of the cells were removed with the spent media. The remaining cells could be visually evaluated for qualitative morphological changes at the end of the treatment period, but meaningful cell quantification could not be done reliably using this approach.
FIGS. 5A-5D show PC12 Cell Morphology after Vehicle vs PACAP Treatment (100 nM). […] In all cases the process outgrowths on the treated cells were greater than 2× the cell body width
The PC12 cells were cultured in RPMI containing 5% heat inactivated fetal bovine serum and 10% horse serum in the presence of 100 units/mL penicillin and 100 microgram/mL streptomycin. The cells were plated on poly-D-Lysine coated 6-well tissue culture plates at a density of 150,000 cells per well in 2 mL media. After 48 hours at 37° C. in 5% CO2 atmosphere, media exchange was performed and plates were dosed, using the peptide diluent (water) for the control samples. […] Cell images of each treatment group were captured and compared to the control cells to screen for differentiation and cell body volume increases. Cells having neurite-like process outgrowth were noted and photographed. The neurite-like outgrowth was deemed positive if its length was at least two times the width of the cell body.

[7] = stability in mouse serum at 37° C. (FI-MSn); type: in vitro ADME; conditions: mouse serum at 37° C.
Description: Chemical stability of the glycopeptides in vivo plays an important role in the deliverability of the drugs to the site(s) of action within the brain. It is also important to know what the chemical or metabolic instabilities are in order to inform the drug design process. […] Data were fitted using a single exponential decay model (R^2>0.71, in all cases).
The overall process was as follows: Flow-injection tandem mass spectrometry (FI-MS^n) was used to observe the degradation of the peptides and glycopeptides with a Thermo LCQ with electrospray ionization (ESI). The technique involved injection of a sample bolus of material in mouse serum via a six port valve with fluid flow delivered via a syringe pump, and subsequent electrospray ionization (ESI) followed by mass spectral analysis. Samples were diluted to a concentration of ˜5 μM of each PACAP analogue, and were incubated at 37° C. for times varying from 1 to 60 minutes. After samples had been incubated for the prescribed amount of time they were prepared for mass spectrometry analysis by withdrawing 10 microliters of solution and spiking with 1 microliter of a 10 μM solution of peptide internal standard (angiotensin II) in 50% acetic acid and subjecting them to a standard C18 zip tip desalting. These solutions, once eluted from the zip tip were diluted to 100 μL in 50:50 acetonitrile/water with 0.1% formic acid. Tandem mass spectrometry analysis (MS^3) was conducted to yield specific, quantitative signals proportional to the amount of PACAP analogue at each time point. This technique was also used with microdiasylate samples from a mouse after i.p. administration of PACAP1-27-S-G.

[8] = lesioned side, treatment vs vehicle
[9] = three treatment-injections, vs vehicle
[10] = treatment vs vehicle, listed as 2LS98lac

2LS98Lac: PACAP glycopeptide; 2LS98 = HSDGIFTDSYSRYRKQLAVKKYLAAVL-Ser-CONH2 (SEQ ID NO: 7), lactose (HSDGIFTDSYSRYRKQLAVKKYLAAVLS; not fully specified; lactose glycosylation, C-terminal amide) [Compound 2LS98Lac]
cumulative amphetamine-induced contralateral rotations ([1]; 15 mg/kg i.p. 6 h prior and 24 h post-lesion, vs vehicle): significantly decreased; also recorded: reduces 6-OHDA-induced lesion damage | TH-positive neurons in the SNpc, lesioned vs intact side ([1]; 15 mg/kg i.p., mild lesion): neuronal cell death was attenuated | 6-OHDA-induced change in microglia morphologic phenotype ([2]; lesioned side): fully reversed | % area IBA-1/cell [2, 8]: significant increase | branches/cell [2, 8]: significant increase | endpoints/cell [2, 8]: trend toward increase | process length/cell [2, 8]: significant increase | 6-OHDA-induced change in microglia morphologic phenotype ([2]; lesioned side, listed as 2LS98lac): rescues 6-OHDA induced morphological changes to microglia | nigral TH-cell count on the lesioned side ([2]; moderate lesion): 9,244 cells | mean increase of nigral TH-cell count on the lesioned side vs vehicle group ([2]; not significant (p=0.2208)): 850 cells | amphetamine-induced rotations at 2 weeks post-lesion [2, 9]: did not see a difference; also recorded: does not reduce 6-OHDA-induced lesion damage | amphetamine-induced rotations at 4 weeks post-lesion [2, 9]: did not see a difference; also recorded: does not reduce 6-OHDA-induced lesion damage | striatal DA content ([2]; treatment vs vehicle): no significant difference | striatal TH (western analysis) ([2]; treatment vs vehicle): no significant difference | striatal DA content [2, 10]: did not change | striatal TH (western analysis) [2, 10]: did not change

CC[C@H](C)[C@H](NC(=O)CNC(=O)[C@H](CC(=O)O)NC(=O)[C@H](CO)NC(=O)[C@@H](N)Cc1c[nH]cn1)C(=O)N[C@@H](Cc1ccccc1)C(=O)N[C@H](C(=O)N[C@@H](CC(=O)O)C(=O)N[C@@H](CO)C(=O)N[C@@H](Cc1ccc(O)cc1)C(=O)N[C@@H](CO)C(=O)N[C@@H](CCCNC(=N)N)C(=O)N[C@@H](Cc1ccc(O)cc1)C(=O)N[C@@H](CCCNC(=N)N)C(=O)N[C@@H](CCCCN)C(=O)N[C@@H](CCC(N)=O)C(=O)N[C@@H](CC(C)C)C(=O)N[C@@H](C)C(=O)N[C@H](C(=O)N[C@@H](CCCCN)C(=O)N[C@@H](CCCCN)C(=O)N[C@@H](Cc1ccc(O)cc1)C(=O)N[C@@H](CC(C)C)C(=O)N[C@@H](C)C(=O)N[C@@H](C)C(=O)N[C@H](C(=O)N[C@@H](CC(C)C)C(=O)N[C@@H](CO[C@@H]1O[C@H](CO)[C@@H](O[C@@H]2O[C@H](CO)[C@H](O)[C@H](O)[C@H]2O)[C@H](O)[C@H]1O)C(N)=O)C(C)C)C(C)C)[C@@H](C)O [Compound 2LS80Lac]
half-life [3]: > 1 h

CSCC[C@H](NC(=O)[C@H](CCC(N)=O)NC(=O)[C@H](CCCCN)NC(=O)[C@H](CCCNC(=N)N)NC(=O)[C@H](Cc1ccc(O)cc1)NC(=O)[C@H](CCCNC(=N)N)NC(=O)[C@H](CO)NC(=O)[C@H](Cc1ccc(O)cc1)NC(=O)[C@H](CO)NC(=O)[C@H](CC(=O)O)NC(=O)[C@@H](NC(=O)[C@@H](N)Cc1ccccc1)[C@@H](C)O)C(=O)N[C@@H](C)C(=O)N[C@H](C(=O)N[C@@H](CCCCN)C(=O)N[C@@H](CCCCN)C(=O)N[C@@H](Cc1ccc(O)cc1)C(=O)N[C@@H](CC(C)C)C(=O)N[C@@H](C)C(=O)N[C@@H](C)C(=O)N[C@H](C(=O)N[C@@H](CC(C)C)C(=O)NCC(=O)N[C@@H](CCCCN)C(=O)N[C@@H](CCCNC(=N)N)C(=O)N[C@@H](Cc1ccc(O)cc1)C(=O)N[C@@H](CCCCN)C(=O)N[C@@H](CCC(N)=O)C(=O)N[C@@H](CCCNC(=N)N)C(=O)N[C@H](C(=O)N[C@@H](CCCCN)C(=O)N[C@@H](CC(N)=O)C(=O)N[C@@H](CCCCN)C(N)=O)C(C)C)C(C)C)C(C)C [PACAP6-38]
Ki [4]: 1.5 nM | Kb ([5]; Gaddum/Schild EC50 shift model, read-out: pA2 (converted)): 201 ± 55.4 nM | IC50 ([5]; read-out: antagonism potency (IC50), variable concentration mode): > 333 nM

PACAP1-27-S-L: the corresponding lactoside of PACAP1-27 (HSDGIFTDSYSRYRKQMAVKKYLAAVLS; not fully specified)
cell body volumes [6]: showed increases | degradation in mouse serum [7]: degraded over 30 min

PACAP6-27: truncated putative antagonist (FTDSYSRYRKQMAVKKYLAAVL; ends and bridges not checked)
Ki [4]: 60 nM | shift of PACAP1-27 agonist curves, fixed concentration mode ([5]; fixed antagonist concentrations up to 1 μM): no detectable shifts in the agonist curves; also recorded: caused no shift in the agonist curves | antagonist activity, variable concentration mode ([5]; versus 5 nM PACAP1-27, concentration up to 1 μM): no significant antagonist activity
